What follows are compounds tested against T1, recombinant human DGAT1 (hDGAT1) (Homo sapiens, UniProt O75907) (assay: Membrane-based recombinant hDGAT1 inhibitory activity using radiometry method (Method B)). Settings: values marked *: Method B (radiometry); Sf9 membranes expressing hDGAT1.
T1 construct: host or cells: Sf9 insect cells (baculovirus expression system), used as membrane preparation
T1 sequence (O75907 1-488): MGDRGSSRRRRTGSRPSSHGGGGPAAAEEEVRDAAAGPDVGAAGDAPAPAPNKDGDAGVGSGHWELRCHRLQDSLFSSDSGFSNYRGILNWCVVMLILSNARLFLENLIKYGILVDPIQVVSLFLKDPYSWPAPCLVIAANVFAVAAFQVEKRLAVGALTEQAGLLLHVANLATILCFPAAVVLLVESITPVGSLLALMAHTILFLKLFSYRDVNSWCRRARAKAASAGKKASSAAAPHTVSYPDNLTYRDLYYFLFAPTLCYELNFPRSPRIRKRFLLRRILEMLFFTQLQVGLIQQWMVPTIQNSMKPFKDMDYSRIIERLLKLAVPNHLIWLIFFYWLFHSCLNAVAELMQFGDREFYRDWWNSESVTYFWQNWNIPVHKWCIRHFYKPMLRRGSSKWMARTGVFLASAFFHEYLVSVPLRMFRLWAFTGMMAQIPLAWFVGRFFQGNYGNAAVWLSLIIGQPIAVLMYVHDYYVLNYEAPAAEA
Type: biochemical
Description: Measurement of Membrane-Based Recombinant hDGAT1 Inhibitory Activity Using Radiometry Method (Method B):
The determination of recombinant human DGAT1 (hDGAT1) activity was carried out using a Radiometry based assay system based on literature report [European Journal of Medicinal Chemistry (2012), August; 54:324-42]. In brief, baculovirus expression system (Sf9) membranes expressing hDGAT1 were employed for the membrane based assay.
Radiometry hDGAT1 assays were performed using 1 μg of the hDGAT1, pre-incubated with 100 μl of the assay buffer [100 mM Tris-HCl (pH 7.5), 250 mM sucrose, and 1.25 mg/ml fatty acid free BSA] containing a known concentration of the inhibitor and supplemented with 300 μM of 1,2-dioleoylglycerol. The hDGAT1 reaction was initiated following an addition of 16.8 nCi of [14C]-oleoyl CoA. The reaction was terminated after 30 minutes of incubation at 37° C. using 300 μl alkaline ethanol stop solution mix (AESSM) [12.5% of 100% non-denatured ethanol, 10% deionized water, 2.5% NaOH, and 75% stop solution (78.4% isopropanol, 19.6% n-heptane, 2% deionized water)]. The ^14C triglyceride formed in this reaction was extracted using 600 μl of heptane. 250 μl of this extracted heptane was added to scintillation fluid and subjected to radioactivity measurement.

| SMILES | IC50 [nM] |
| --- | --- |
| O=C(Nc1ccc(N2CCC3(CC2)CC(C(=O)O)C3)nc1)c1nnc(Nc2ccccc2)o1 [Example B34, 7-[5-[(5-anilino-1,3,4-oxadiazole-2-carbonyl)amino]-2-pyridyl]-7-azaspiro[3.5]nonane-2-carboxylic acid] | 24 |
| O=C(O)CC1CC2(CCN(c3ccc(NC(=O)c4nnc(Nc5ccccc5F)o4)cn3)CC2)C1 [Example B33, 2-[7-[5-[[5-(2-fluoroanilino)-1,3,4-oxadiazole-2-carbonyl]amino]-2-pyridyl]-7-azaspiro[3.5]nonan-2-yl]acetic acid] | 26 |
| O=C(Nc1ccc(N2CCC3(CC2)CC(C(=O)O)C3)nc1)c1nnc(Nc2ccc(Cl)cc2)o1 [Example B36, 7-[5-[[5-(4-chloroanilino)-1,3,4-oxadiazole-2-carbonyl]amino]-2-pyridyl]-7-azaspiro[3.5]nonane-2-carboxylic acid] | 25 |
| O=C(O)CC1CC2(CCN(c3ccc(NC(=O)c4nnc(Nc5ccc(F)c(F)c5)o4)cn3)CC2)C1 [Example B32, 2-[7-[5-[[5-(3,4-difluoroanilino)-1,3,4-oxadiazole-2-carbonyl]amino]-2-pyridyl]-7-azaspiro[3.5]nonan-2-yl]acetic acid] | 6.9 |
| O=C(Nc1ccc(N2CCC3(CC2)CC(C(=O)O)C3)nc1)c1nnc(Nc2cccc(F)c2)o1 [Example B35, 7-[5-[[5-(3-fluoroanilino)-1,3,4-oxadiazole-2-carbonyl]amino]-2-pyridyl]-7-azaspiro[3.5]nonane-2-carboxylic acid] | 19 |

Other lines, results leading:

| IC50 [nM] | SMILES |
| --- | --- |
| 50 | O=C(O)CC1CC2(CCN(c3ccc(NC(=O)c4nnc(Nc5ccccc5F)o4)cc3)CC2)C1 [Example B38, 2-[7-[4-[[5-(2-fluoroanilino)-1,3,4-oxadiazole-2-carbonyl]amino]phenyl]-7-azaspiro[3.5]nonan-2-yl]acetic acid] |
| 22 | O=C(Nc1ccc(N2CCC3(CC2)CC(C(=O)O)C3)nc1)c1nnc(Nc2cccc(C(F)(F)F)c2)o1 [Example B37, 7-[5-[[5-[3-(trifluoromethyl)anilino]-1,3,4-oxadiazole-2-carbonyl]amino]-2-pyridyl]-7-azaspiro[3.5]nonane-2-carboxylic acid] |
| 47 | O=C(O)CC1CC2(CCN(c3ccc(NC(=O)c4nnc(Nc5ccccc5)o4)cc3)CC2)C1 [Example B39, 2-[7-[4-[(5-anilino-1,3,4-oxadiazole-2-carbonyl)amino]phenyl]-7-azaspiro[3.5]nonan-2-yl]acetic acid] |
| 20 | O=C(O)CC1CC2(CCN(c3ccc(NC(=O)c4nnc(Nc5ccc(F)c(F)c5)o4)cc3)CC2)C1 [Example B40, 2-[7-[4-[[5-(3,4-difluoroanilino)-1,3,4-oxadiazole-2-carbonyl]amino]phenyl]-7-azaspiro[3.5]nonan-2-yl]acetic acid] |

— patent publication US9550793B2, “Spirocyclic compounds, compositions and medicinal applications thereof” (Advinus Therapeutics Limited, priority 2012, dated 2017)
